# Columns and labels:
# Format in all cases: cell-based
# Ba/F3 parental cells = assay: Cell growth inhibitory activity assay (CellTiter-Glo), Ba/F3 parental cells; details: Mus musculus, BaF3, 72 h, CTG cell viability, read-out: IC50 Ba/F3 BCR-ABL1 Parental
# Method in brief: (§1)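 Ba/F3 parental cells or Ba/F3 lines lentivirally transduced with WT or mutant BCR-ABL1, seeded overnight then exposed to serially diluted compound 72 h at 37 °C, 5% CO2. Viability by CellTiter-Glo ATP luminescence with a T0 plate; 0.5% DMSO controls; IC50 from four-parameter nonlinear fit.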
# Ba/F3 BCR-ABL1 T315I = target: T1, Ba/F3 BCR-ABL1 T315I (Homo sapiens, UniProt P00519+P11274, T315I); assay: Cell growth inhibitory activity assay (CellTiter-Glo), Ba/F3 BCR-ABL1 T315I cells; details: 72 h, CTG cell viability
# T1 construct: BCR (N-terminal fusion partner of the oncoprotein); expressed in transfected cells; host or cells: Ba/F3 (lentiviral transduction, monoclonal line)
# Method in brief: as §1
# Ba/F3 BCR-ABL1 WT = target: T2, Ba/F3 BCR-ABL1 WT (Homo sapiens, UniProt P00519+P11274); assay: Cell growth inhibitory activity assay (CellTiter-Glo), Ba/F3 BCR-ABL1 WT cells; details: 72 h, CTG cell viability
# T2 construct: BCR (N-terminal fusion partner of the oncoprotein); expressed in transfected cells; host or cells: Ba/F3 (lentiviral transduction, monoclonal line)
# Method in brief: as §1
# K562 cells = assay: Cell growth inhibitory activity assay (CellTiter-Glo), K562 cells; details: Homo sapiens, 72 h, CTG cell viability
# Method in brief: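 Growth inhibition of human K562 cells, sourced from Nanjing Kebai (CBP60529), was assessed with Promega's CellTiter-Glo kit, which measures viability through ATP quantification. Log-phase cells went into the inner wells of 96-well plates, with PBS in edge wells, incubated overnight at 37 °C and 5% CO2, then exposed to serially diluted compound for 72 h.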
# Ba/F3 BCR-ABL1 T315M = target: T3, Ba/F3 BCR-ABL1 T315M (Homo sapiens, UniProt P00519+P11274, T315M); assay: Cell growth inhibitory activity assay (CellTiter-Glo), Ba/F3 BCR-ABL1 T315M cells; details: 72 h, CTG cell viability
# T3 construct: BCR (N-terminal fusion partner of the oncoprotein); expressed in transfected cells; host or cells: Ba/F3 (lentiviral transduction, monoclonal line)
# Description: In this assay, the Celltiter-Glo (CTG) kit provided by Promega was used, and it is a homogeneous cell viability assay method. The cell viability of cultured cells was measured by quantifying ATP. K562 cells were purchased from Nanjing Kebai, product number CBP60529; Ba/F3 parental cells were purchased from RIKEN BRC, product number RCB0805; other cells containing BCR-ABL1 WT, BCR-ABL1 T315I, BCR-ABL1 T315M, BCR-ABL1 Y253H/E255K, BCR-ABL1 E255V/T3151, BCR-ABL1 A424T, BCR-ABL1 A337V, BCR-ABL1 P465S, BCR-ABL1 V468F, and BCR-ABL1 I502L were all monoclonal engineered cell lines obtained by transducting Ba/F3 parental cells with the lentivirus plasmids containing WT or corresponding mutated BCR-ABL1.
# The steps of cell viability assay are as follows: • a) Cells in logarithmic growth phase were collected. Cell suspension was prepared and the cells were counted. Concentration of the cells was calculated. • b) The cell suspension was diluted to the required concentration and then added to the middle wells of a 96-well plate, and PBS was added to the edge wells. The wells with no cells and only culture medium were used as blank controls. • c) In addition to the cell plate used for compound analysis, another 96-well plate was prepared as a T0 plate, and 3-6 blank wells and 3-6 cell wells were added. The next day, CTG was used to test the cell viability as the T0 viability value of the cells. • d) The cell plate was incubated at 37 °C in a 5% CO2 incubator overnight. • e) The next day, each concentration of a compound subjected to a gradient dilution was added, and the cell plate was incubated at 37 °C in a 5% CO2 incubator for 72 h. The wells with no compound and only 0.5% DMSO were used as positive controls for cell growth. • f) CTG reagent (CellTiter-Glo kit) was added according to the manufacturer's instructions to test the cell viability value. • g) The plate was read using Biotek cytation3.0 microplate reader and the data were exported. • h) IC50 was calculated using GraphPad Prism 7.0 software.
# The IC50 (half-maximal inhibitory concentration) of the compound was obtained using the following nonlinear fitting formula: Y = Bottom + (Top−Bottom)/(1+10^(∧)((LogIC50−X)*HillSlope)) [formula] • X: Log value of the compound concentration • Y: Inhibition rate (% inhibition) • Top: Maximum response • Bottom: Baseline response • HillSlope: Slope of the curve
# The formula for calculating cell inhibition rate (inhibition rate %) was: [formula]
Compound,IC50 (K562 cells),IC50 (Ba/F3 parental cells),IC50 (Ba/F3 BCR-ABL1 T315I),IC50 (Ba/F3 BCR-ABL1 WT),IC50 (Ba/F3 BCR-ABL1 T315M)
"CC(=O)N[C@H]1CCC2c3cc(C(=O)Nc4ccc(OC(F)(F)Cl)cc4)cc(-c4cnc5c(c4)C(=O)N(C)C5)c3N(C(C)C)C21 (stereo partly drawn) [T-11-A, (3S)-3-acetamido-N-(4-(chlorodifluoromethoxy)phenyl)-4-isopropyl-5-(6-methyl-5-oxo-6,7-dihydro-5H-pyrrolo[3,4-b]pyridin-3-yl)-1,2,3,3a,4,8b-hexahydrocyclopenta[b]indole-7-carboxamide]",50 to 1000 nM,> 1000 nM,> 1000 nM,50 to 1000 nM,> 1000 nM
"CC1(C)C(=O)Nc2cc(C(=O)Nc3ccc(OC(F)(F)Cl)cc3)cc(-c3cnc4c(c3)-c3nn(-c5ncccn5)cc3C4)c21 [T-123, N-(4-(chlorodifluoromethoxy)phenyl)-3,3-dimethyl-2-oxo-4-(2-(pyrimidin-2-yl)-2,4-dihydropyrazolo[3',4':3,4]cyclopenta[1,2-b]pyridin-7-yl)indoline-6-carboxamide]",≤ 5 nM,> 1000 nM,≤ 5 nM,≤ 5 nM,
"N#Cc1cnc(-n2cc3c(n2)-c2cc(-c4cc(C(=O)Nc5ccc(OC(F)(F)Cl)cc5)cnc4N4CC[C@@H](F)C4)cnc2C3)nc1 [T-128, (R)-N-(4-(chlorodifluoromethoxy)phenyl)-5-(2-(5-cyanopyrimidin-2-yl)-2,4-dihydropyrazolo[3',4':3,4]cyclopenta[1,2-b]pyridin-7-yl)-6-(3-fluoropyrrolidin-1-yl)nicotinamide]",≤ 5 nM,> 1000 nM,≤ 5 nM,≤ 5 nM,
"N#Cc1ccnc(-n2cc3c(n2)-c2cc(-c4cc(C(=O)Nc5ccc(OC(F)(F)Cl)cc5)cnc4N4CC[C@@H](F)C4)cnc2C3)n1 [T-129, (R)-N-(4-(chlorodifluoromethoxy)phenyl)-5-(2-(4-cyanopyrimidin-2-yl)-2,4-dihydropyrazolo[3',4':3,4]cyclopenta[1,2-b]pyridin-7-yl)-6-(3-fluoropyrrolidin-1-yl)nicotinamide]",≤ 5 nM,> 1000 nM,≤ 5 nM,≤ 5 nM,
"O=C(Nc1ccc(OC(F)(F)Cl)cc1)c1cnc(N2CC[C@@H](F)C2)c(-c2cnc3c(c2)-c2nn(-c4ncc(F)cn4)cc2C3F)c1 (stereo partly drawn) [T-130, N-(4-(chlorodifluoromethoxy)phenyl)-5-(4-fluoro-2-(5-fluoropyrimidin-2-yl)-2,4-dihydropyrazolo[3',4':3,4]cyclopenta[1,2-b]pyridin-7-yl)-6-((R)-3-fluoropyrrolidin-1-yl)nicotinamide]",≤ 5 nM,> 1000 nM,≤ 5 nM,≤ 5 nM,
"O=C(Nc1ccc(OC(F)(F)Cl)cc1)c1cnc(N2CC[C@@H](F)C2)c(-c2cnc3c(c2)-c2c(cnn2-c2ncc(F)cn2)C3F)c1 (stereo partly drawn) [T-131, N-(4-(chlorodifluoromethoxy)phenyl)-5-(4-fluoro-1-(5-fluoropyrimidin-2-yl)-1,4-dihydrepyrazolo[3',4':3,4]cyclopenta[1,2-b]pyridin-7-yl)-6-((R)-3-fluoropyrrolidin-1-yl)nicotinamide]",5 to 50 nM,> 1000 nM,50 to 1000 nM,50 to 1000 nM,
"Nc1nc(N2CC[C@@H](F)C2)c(-c2cnc3c(c2)-c2nn(-c4ncc(F)cn4)cc2C3)cc1C(=O)Nc1ccc(OC(F)(F)Cl)cc1 [T-132, (R)-2-amino-N-(4-(chlorodifluoromethoxy)phenyl)-5-(2-(5-fluoropyrimidin-2-yl)-2,4-dihydropyrazolo[3',4':3,4]cyclopenta[1,2-b]pyridin-7-yl)-6-(3-fluoropyrrolidin-1-yl)nicotinamide]",≤ 5 nM,50 to 1000 nM,≤ 5 nM,≤ 5 nM,
"N#Cc1ccnc(-n2cc3c(n2)-c2cc(-c4cc(C(=O)Nc5ccc(OC(F)(F)Cl)cc5)c(N)nc4N4CC[C@@H](F)C4)cnc2C3)n1 [T-133, (R)-2-amino-N-(4-(chlorodifluoromethoxy)phenyl)-5-(2-(4-cvanopyrimidin-2-yl)-2,4-dihydropyrazolo[3',4':3,4]cyclopenta[1,2-b]pyridin-7-yl)-6-(3-fluoropyrrolidin-1-yl)nicotinamide]",≤ 5 nM,> 1000 nM,≤ 5 nM,≤ 5 nM,
"N#Cc1cnc(-n2cc3c(n2)-c2cc(-c4cc(C(=O)Nc5ccc(OC(F)(F)Cl)cc5)c(N)nc4N4CC[C@@H](F)C4)cnc2C3)nc1 [T-134, (R)-2-amino-N-(4-(chlorodifluoromethoxy)phenyl)-5-(2-(5-cyanopyrimidin-2-yl)-2,4-dihydropyrazolo[3',4':3,4]cyclooenta[1,2-b]pyridin-7-yl)-6-(3-fluoropyrrolidin-1-yl)nicotinamide]",≤ 5 nM,50 to 1000 nM,50 to 1000 nM,≤ 5 nM,

# Second part, led by results:
IC50 (K562 cells),Compound,IC50 (Ba/F3 parental cells),IC50 (Ba/F3 BCR-ABL1 T315I),IC50 (Ba/F3 BCR-ABL1 WT),IC50 (Ba/F3 BCR-ABL1 T315M)
≤ 5 nM,"CC(=O)N[C@@H]1CCC2c3cc(C(=O)Nc4ccc(OC(F)(F)Cl)cc4)cc(-c4cnc5c(c4)C(=O)N(C)C5)c3N(C(C)C)C21 (stereo partly drawn) [T-11-B, (3R)-3-acetamido-N-(4-(chlorodifluoromethoxy)phenyl)-4-isopropyl-5-(6-methyl-5-oxo-6,7-dihydro-5H-pyrrolo[3,4-b]pyridin-3-yl)-1,2,3,3a,4,8b-hexahydrocyclopenta[b]indole-7-carboxamide]",> 1000 nM,5 to 50 nM,≤ 5 nM,50 to 1000 nM
≤ 5 nM,"CC1(C)C(=O)Nc2cc(C(=O)Nc3ccc(OC(F)(F)Cl)cc3)cc(-c3cnc4c(c3)-c3nn(-c5ncc(F)cn5)cc3C4)c21 [T-124, N-(4-(chlorodifluoromethoxy)phenyl)-4-(2-(5-fluoropyrimidin-2-yl)-2,4-dihydropyrazolo[3',4':3,4]cyclopenta[1,2-b]pyridin-7-yl)-3,3-dimethyl-2-oxoindoline-6-carboxamide]",> 1000 nM,≤ 5 nM,≤ 5 nM,
≤ 5 nM,"O=C(Nc1ccc(OC(F)(F)Cl)cc1)c1cc2c(c(-c3cnc4c(c3)-c3n[nH]cc3C4)c1)C1(CCCCC1)C(=O)N2 [T-125, N-(4-(chlorodifluoromethoxy)phenyl)-4'-(2,4-dihydropyrazolo[3',4':3,4]cyclopenta[1,2-b]pyridin-7-yl)-2'-oxospiro[cyclohexane-1,3'-indoline]-6'-carboxamide]",> 1000 nM,5 to 50 nM,≤ 5 nM,
≤ 5 nM,"O=C(Nc1ccc(OC(F)(F)Cl)cc1)c1cc2c(c(-c3cnc4c(c3)-c3nn(-c5ncccn5)cc3C4)c1)C1(CCCCC1)C(=O)N2 [T-126, N-(4-(chlorodifluoromethoxy)phenyl)-4'-(2-(pyrimidin-2-yl)-2,4-dihydropyrazolo[3',4':3,4]cyclopenta[1,2-b]pyridin-7-yl)-2'-oxospiro[cyclohexane-1,3'-indoline]-6'-carboxamide]",> 1000 nM,≤ 5 nM,≤ 5 nM,
≤ 5 nM,"O=C(Nc1ccc(OC(F)(F)Cl)cc1)c1cc2c(c(-c3cnc4c(c3)-c3nn(-c5ncc(F)cn5)cc3C4)c1)C1(CCCCC1)C(=O)N2 [T-127, N-(4-(chlorodifluoromethoxy)phenyl)-4'-(2-(5-fluoropyrimidin-2-yl)-2,4-dihydropyrazolo[3',4':3,4]cyclopenta[1,2-b]pyridin-7-vl)-2'-oxospiro[cyclohexane-1,3'-indoline]-6'-carboxamide]",> 1000 nM,≤ 5 nM,≤ 5 nM,

# Reference: patent EP4768484A1, “HETEROCYCLIC FUSED RING COMPOUND, AND COMPOSITION AND USE THEREOF” (Shenzhen TargetRx, Inc., priority 2023, dated 2025)
